Experiment [1] concerns C51 murine adenocarcinoma. The experiment in a line: Assessment of the tumor necrosis in vivo. The conditions noted are these: intravenous injection, 24 hours after treatment, female BALB/c mice. An excerpt:
Mice are bred by IFFA-CREDO (Domaine des Oncins, 69210 L'Arbresle, France) from a race obtained by Jackson Laboratories, Bar Harbor, Me., USA, or by Charles River France (76410 St Aubin les Elbeuf, France) from a race obtained by Charles River, USA. The mice initially weigh more than 18 g at the start of the test. They have free access to food (UAR reference 113, Villemoisson, 91160 Epinay sur Orge, France) and water.
The tumors used are currently transplanted in our laboratories. All these tumors are at the Frederick Cancer Research Facility (Frederick, Md., USA) in the frozen tumor deposit of the National Cancer Institute (NCl) or at the American Type Culture Collection (ATCC, Rockville, Md., USA).
The tumor transplantation techniques, the chemotherapy and the data analysis are presented in detail (Corbett et al. 1982a; Corbett et al., 1982b).
To summarize, the animals required for an experiment are assembled and implanted bilaterally on day 0 (zero).
The growth of the solid tumors develops freely up to the desired size. The mice are then treated by intravenous injection of a test compound in solution.
The sampling of tumors is usually (but not necessarily) carried out 24 hours after the treatment.
The mice are killed by […]. The implanted tumors, along with the skin covering them and the neighboring tissues, are collected and stored in 10% formaldehyde (v/v) (Carlo Erba, Val de Reuil, France).
The samples are then treated, sectioned, stained with hematoxylin, eosin and saffron yellow, and are then examined […]. The tumor necrosis (necrosis±degeneration) is assessed microscopically using a scale of magnitude from 0 to 5:
The values assigned to the tumor necrosis 24 hours after administration of the test compound correspond solely to a necrosis dependent on the product which may be differentiated with certainty from any existing necrosis arising from the experiment.
The necrosis due to the experiment was assessed on an untreated control.
The tumor model is a C51 murine adenocarcinoma. This colon tumor is a grade III mucous colon […]. It is maintained by serial subcutaneous passages every 18 days in female BALB/c mice. The experiments were carried out on female BALB/c mice.

Experiment [2] deals with HeLa cells. Put plainly: Inhibition of proliferation of HeLa cells ([14C]-thymidine incorporation). It is filed as cell-based. As to conditions: Homo sapiens, incubation for 48 hours, read-out: Inhibition of cell proliferation IC50 HeLa. How it is done: The proliferation of HeLa cells is assessed by measuring the incorporation of [^14C]-thymidine in the following way. The HeLa cells (epithelial tumor cells of human origin) are cultured in a DMEM medium (Gibco) which contains 10% fetal calf serum and antibiotics (1% penicillin, 1% streptomycin). To carry out the proliferation test, the cells are inoculated into 96-well cytostar microplates (Amersham), at a rate of 5 000 cells per well. [^14C]-thymidine (0.1 μCi/well) and the products to be assessed are then added. Variable concentrations of products up to 10 μM are used; the DMSO (solvent used to dissolve the products) should not exceed 0.5% in the medium. After incubation for 48 hours at 37° C., the radioactivity incorporated into the cells is measured by counting the plate in a TRI-LUX counter (Wallac). The IC50 value is defined as the concentration of product which reduces the radioactivity by 50% relative to an untreated control. A product whose IC50 value is less than 1 μM is considered as cytotoxic.
In general terms: Uptake of a labelled nucleoside into DNA is a usual measure of proliferation.

For experiment [3], the system named is HDMEC. Put plainly: Inhibition of cell proliferation, HDMEC. It is filed as cell-based. The conditions noted are these: Homo sapiens.
In experiment [4] the target is T1, Tubulin (Sus scrofa, UniProt P02550+P02554).
T1 construct: Tubulin is purified from pig brains according to the published methods; from tissue; host or cells: pig brain
T1 sequence (P02550 whole entry): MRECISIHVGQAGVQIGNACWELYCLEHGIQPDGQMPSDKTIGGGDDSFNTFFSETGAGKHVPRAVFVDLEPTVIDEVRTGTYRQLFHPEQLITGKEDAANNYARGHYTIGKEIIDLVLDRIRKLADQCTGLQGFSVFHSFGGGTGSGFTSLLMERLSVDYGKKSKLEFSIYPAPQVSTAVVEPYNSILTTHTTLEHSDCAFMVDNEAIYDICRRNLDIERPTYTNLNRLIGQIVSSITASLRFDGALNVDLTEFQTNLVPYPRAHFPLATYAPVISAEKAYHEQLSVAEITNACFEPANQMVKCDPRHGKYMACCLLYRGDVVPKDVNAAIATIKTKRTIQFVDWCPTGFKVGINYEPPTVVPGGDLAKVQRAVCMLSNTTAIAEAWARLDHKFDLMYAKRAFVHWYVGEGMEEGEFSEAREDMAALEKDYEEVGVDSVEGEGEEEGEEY
T1 sequence (P02554 whole entry): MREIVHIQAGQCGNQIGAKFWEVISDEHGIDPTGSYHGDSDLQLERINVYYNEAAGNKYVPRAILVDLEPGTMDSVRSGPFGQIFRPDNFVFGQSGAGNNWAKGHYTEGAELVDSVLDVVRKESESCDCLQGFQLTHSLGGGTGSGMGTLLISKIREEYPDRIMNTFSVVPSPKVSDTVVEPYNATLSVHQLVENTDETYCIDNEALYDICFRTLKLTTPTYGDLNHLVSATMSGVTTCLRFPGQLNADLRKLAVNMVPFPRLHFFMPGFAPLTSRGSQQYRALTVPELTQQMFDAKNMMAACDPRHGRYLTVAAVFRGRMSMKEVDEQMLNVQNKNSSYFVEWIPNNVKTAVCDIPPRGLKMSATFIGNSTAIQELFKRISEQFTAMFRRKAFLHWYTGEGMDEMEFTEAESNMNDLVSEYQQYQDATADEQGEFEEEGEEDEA
The experiment in a line: Assessment of the inhibition of tubulin polymerization (turbidimetry). The conditions noted are these: tubulin 10 μM, turbidity at 350 nm, 37° C. The format is biochemical, pig. The procedure:
Tubulin is purified from pig brains according to the published methods (Shelanski et al., 1973, Proc. Natl, Acad. Sci. USA, 70, 765-768. Weingarten et al., 1975, Proc. Natl, Acad. Sci. USA, 72, 1858-1862). Briefly, the brains are ground and centrifuged in an extraction buffer. The tubulin, contained in the extract supernatant, is subjected to two successive cycles of polymerization at 37° C. and depolymerization at 4° C., before being separated from the MAPs (Microtubule Associated Proteins) by chromatography on a phosphocellulose P11 column (Whatman). The tubulin thus isolated is more than 95% pure. It is stored in a buffer known as RB/2 30% glycerol, the composition of which is MES-NaOH [2-(N-morpholino)ethanesulfonic acid] 50 mM, pH 6.8; MgCl2 0.25 mM; EGTA 0.5 mM; 30% glycerol (v/v), GTP (guanosine 5′-triphosphate) 0.2 mM.
The polymerization of the tubulin into microtubules is monitored by turbidimetry as follows; the tubulin is adjusted to a concentration of 10 μM (1 mg/ml) in the RB/2 30% glycerol buffer, to which is added 1 mM GTP and 6 mM MgCl2. The polymerization is initiated by increasing the temperature from 6° C. to 37° C. in a cuvette with a 1 cm optical pathlength, placed in a Uvikon 931 spectrophotometer (Kontron) equipped with a thermostatically-regulated cuvette holder. The increase in the turbidity of the solution is monitored at 350 nm.
The products are dissolved at 10 mM in DMSO and added at variable concentrations (0.5 to 10 μM) to the tubulin solution before polymerization. The IC50 value is defined as the concentration of product which inhibits 50% of the rate of polymerization. A product whose IC50 value is less than or equal to 3 μM is considered as very active.

The text below walks through data of patent publication US20030153611A1, “1,3-Diarylprop-2-en-1-ones, compositions containing them and use thereof” (AVENTIS PHARMA S.A., priority 2001, published 2003).

Structures can show the parent of a compound that is named as a salt.

Consider `COc1ccc(/C=C(\C)C(=O)c2cc(OC)c(OC)c(OC)c2)cc1NC(=O)[C@@H](N)CO` [Example 13, (S)-2-Amino-3-hydroxypropanoic acid {2-methoxy-5-[2-methyl-3-oxo-3-(3,4,5-trimethoxyphenyl)propenyl]phenyl}amide hydrochloride], for which the “C51 colon tumor necrosis in vivo (grade)” value in experiment [1] (12.5 mg/kg) is given as “Grade 5 at 12.5 (5=large, >75%)”. Besides, the values for the IC50 in experiment [2], in experiment [3] and in experiment [4] were 0.1 µM, 0.03 µM and 10 µM, respectively.

Take `COc1cc(C(=O)/C(C)=C/c2ccc3c(ccn3C)c2)cc(OC)c1OC` [Example 5, E-2-Methyl-3-(1-methyl-1-H-indol-5-yl)-1-(3,4,5-trimethoxyphenyl)propenone]: in experiment [1] (25 mg/kg), the “C51 colon tumor necrosis in vivo (grade)” value is “Grade 5 at 25 (5=large, >75%)”. Also, the results for the IC50 in experiment [2], in experiment [3] and in experiment [4] were 0.005 to 0.01 µM, 0.03 µM and 0.7 µM, respectively.
